Laboratory results from US9376700B2, “Methods of modifying N-termini of a peptide or protein using transferases” (The Trustees of the University of Pennsylvania, priority 2012, dated 2016).
Entries after “also recorded” stand apart in the source; their conditions may differ.

Columns and labels:
Format in all cases: biochemical
[1] = biological target: T1, E. coli aminoacyl transferase (AaT) (Escherichia coli, UniProt P0A8P1); experiment: A/AMP/ATP/pdCpA inhibition studies of ligation with Phe donor 4a; design: made in house; host or cells: E. coli BL21-Gold (DE3), plasmid pEG6, Ni-NTA purified
Method: Each ligation reaction was performed as described elsewhere herein.
To better understand limitations on the yield from AaT reactions, the possibilities of inhibition by hydrolyzed substrate or aminoacylated product were assessed. Since the acyl adenosine donor substrate is not regenerated during the reaction (unlike the aaRS/tRNA/AaT reaction), it was hypothesized that the adenosine byproduct might inhibit further acylation by binding to AaT. To investigate this possibility, adenosine was added to the reaction at varying concentrations and monitored the reaction timecourse by fluorescence spectroscopy and by HPLC.

[2] = biological target: T1, E. coli aminoacyl transferase (AaT); experiment: Real time fluorometric monitoring of Nap transfer from 4d to LysAlaAcm; design: made in house; host or cells: E. coli BL21-Gold (DE3), plasmid pEG6, Ni-NTA purified; conditions: up to 1 mM exogenous adenosine, real time fluorescence
Method: Real time fluorescent monitoring of Nap addition to LysAlaAcm was carried out using reaction solutions prepared on the 500 μL scale in stirred quartz cuvettes with 1.00 cm path lengths. Reagent concentrations were as described elsewhere herein, except that donor 4d was withheld until the cuvette was placed in the fluorometer and temperature equilibrated. Reactions were then initiated by addition of 20 μL of 25 mM Nap-A (4d) stock or water (for negative controls). Fluorescence emission at 390 nm was monitored after excitation at 325 nm. Prior calibration had shown that NapLysAlaAcm (5d) concentrations could be estimated from fluorescence intensity readings (F5d) using the equation [5d]=(1−(F5d/FControl))1.39[LysAlaAcm], where fControl is the fluorescence reading of the reaction with water added instead of 4d. […]
In order to monitor conversion of LysAlaAcm to NapLysAlaAcm (5d) in real time, a fluorometric assay was designed based on intramolecular quenching of aminocoumarin fluorescence by the naphthyl ring. Equimolar solutions of LysAlaAcm and NapLysAlaAcm, as well as mixtures of the two solutions, were prepared and their fluorescence was compared as depicted in FIG. 18A. […]
The present experiment was also achieved to monitor product formation in real time based on partial quenching of coumarin fluorescence upon addition of Nap to the LysAlaAcm peptide to form 5d. […]

[3] = biological target: T2, E. coli aminoacyl tRNA transferase (AaT) (Escherichia coli, UniProt P0A8P1); experiment: AaT-catalyzed α-casein N-terminal modification (Edman degradation, tryptic digest MALDI MS); conditions: double addition of donor
T2 construct: made in house; host or cells: E. coli BL21-Gold (DE3), plasmid pEG6, Ni-NTA purified
Method: HEPES pH 8.0, 1.50 mM KO, 10 mM MgCl2) and AaT (0.05 mg). The reaction mixture was incubated at 37° C. for 12 h, AaT was removed using Ni^2+ resin (Ni-NTA Superflow, Qiagen), and then buffer exchanged four times into phosphate buffered saline (PBS, 12 mM NaH2PO4, 50 mM NaCl, 4.7 mM KCl, pH 8.0) by Spectra/Por 1 dialysis tubing (Spectrum Laboratories; Rancho Dominguez, Calif.). Azf-modified α-casein was used directly after buffer exchange into PBS. Aliquots (1 nmol) of α-casein were diluted into PBS (22 μL) containing either fluorescein-alkyne (FlAlk, 91 μM) or propargylamine (Alk, 227 μM) for copper-catalyzed azide-alkyne cycloaddition (CuAAC). […] Reactions were boiled with gel loading dye LDS (Pierce; Rockford, Ill.) for 10 min at 95° C. and analyzed by SDS-PAGE. Fluorescence images were obtained with a Geldoc (BioRAD; Hercules, Calif.) using an excitation wavelength of 302 nm for detection of fluorescein. α-Casein was also directly visualized by Coomassie Brilliant Blue staining.
α-Casein-Azf (33 or α-casein (33 μg) was digested with sequencing grade modified Trypsin (0.6 μg) in 27 μL of 25 mM ammonium bicarbonate pH 7.5 (freshly prepared). Digestions were carried out at 37° C. for 14 h. Trypsin digest aliquots (1 μL) were combined with α-cyano-4-hydroxycinnamic acid (1 μL of a saturated solution in 1:1 H2O/CH3CN with 1% TFA) and analyzed by MALDI MS. […]

[4] = biological target: T2, E. coli aminoacyl tRNA transferase (AaT); experiment: α-Casein labeling in cleared E. coli cell lysate with unpurified AaT, then click reaction with FlAlk; conditions: fluorescence after labeling with FlAlk
Method: AaT was expressed in E. coli BL21-Gold (DE3) cells as previously described. A cleared cell lysate was obtained by centrifugation following cell lysis using sonication. Protein were modified in a final reaction volume of 110 μL with Azf-A (4c, 3 mM) using AaT (25 from cleared lysate in AaT buffer (50 mM HEPES pH 8.0, 150 mM KCl, 10 mM MgCl2). α-Casein (0.012 mg or 0.12 mg) was added to the reaction and incubated at 37° C. for 2 h, after 1 h an additional 0.3 μmole of 4c was added. For control reactions, equivalent volumes were replaced with water. Excess 4c was removed by buffer exchange four times against phosphate buffered saline (PBS, 12 mM NaH2PO4, 50 mM NaCl, 4.7 mM. KCl, pH 8.0) by Spectra/Por 1 dialysis tubing. Aliquots (18 μL) of 4c modified lysates were diluted to a final volume of 22 pit using PBS containing FlAlk (182 μM) for copper-catalyzed “click” reactions. The “click” reaction was initiated by addition of CuSO4 (100 μM), THPTA (500 μM), and sodium ascorbate (5 mM). The reaction mixtures were analyzed by PAGE gel using Coomassie staining and fluorescence as above.
After AaT-catalyzed modification of α-casein with Azf, residual 4c was removed by dialysis. […] Azf transfer was successful, as shown by the observation of fluorescence after labeling with FlAlk.

[5] = biological target: T1, E. coli aminoacyl transferase (AaT); experiment: LysAlaAcm ligation assay: AaT-catalyzed transfer from aminoacyl adenosine donor to LysAlaAcm, HPLC at 325 nm; design: made in house; host or cells: E. coli BL21-Gold (DE3), plasmid pEG6, Ni-NTA purified; conditions: single addition of 1 mM donor, 100 μM LysAlaAcm, 2.26 μM AaT, 37° C., 4 h, no additive
Method: Each ligation reaction, 125 μL total volume, contained the following reagents: aminoacyl adenosine donor (1 mM), recombinant His10-tagged E. coli aminoacyl transferase (2.26 μM), and LysAlaAcm (100 μM) in the AaT Ligation Buffer (50 mM HEPES pH 8.0, 150 mm KCl, 10 mM MgCl2). The reaction mixtures were incubated at 37° C. for four hours and quenched with 1% acetic acid. The proteins were extracted from the reactions via acetone precipitation. The reactions were precipitated using 4× reaction volume of acetone and cooled at −20° C. for 1 h. Next, the reactions were centrifuged at 13,200 rpm at 4° C. for 20 min to separate the reaction from precipitated protein. The supernatant was transferred to fresh 1.5 mL centrifuge tubes and allowed for acetone evaporation overnight at room temperature. After acetone evaporation, the supernatant was dried in a Speedvac (Savant, Thermo Scientific, Fisher Inc.) for 30 min to remove residual acetone. The resulting reaction volume was dissolved up to 1.2 mL using Milli-Q water and analyzed by HPLC (gradient below) to determine ligation yield by integration of separated peak intensities monitored at 325 nm. Collected HPLC fractions were characterized through MALDI MS analysis. […] Reactions using Phe-pdCpA as donor were carried out in an identical fashion (Ellman, et al., 1991, Methods Enzymol. 202:301-336).
All HPLC analyses of LysAlaAcm ligations were monitored on an Agilent HPLC using a Waters C18 column (Milford, Mass.).
All HPLC analyses of LysAlaAcm ligations were monitored as described elsewhere herein (Gradient 1).
The extent of transfer was evaluated by HPLC analysis of reactions with adenosyl donor, AaT or BpT, and an aminocoumarin-labeled reporter peptide (for AaT, LysAlaAcm was used as previously described by Tirrell and co-workers; for BpT, AspAlaAcm was used in an analogous fashion) (Connor et al., 2008, ChemBioChem 9:366-369). Monitoring LysAlaAcm or AspAlaAcm acylation in crude reaction mixtures using absorbance at 325 nm conveniently eliminates background due to other proteins and nucleic acids, although some non-natural amino acids such as naphthylalanine (Nap) and methoxycoumarinylalanine (Mcm) also absorb in this range.
To evaluate substrate scope, reactions were analyzed after 4 h, when transfer should be complete for the fully enzymatic reaction with Phe tRNA synthetase (Connor et al., 2008, ChemBioChem 9:366-369).

T1 sequence (P0A8P1 whole entry): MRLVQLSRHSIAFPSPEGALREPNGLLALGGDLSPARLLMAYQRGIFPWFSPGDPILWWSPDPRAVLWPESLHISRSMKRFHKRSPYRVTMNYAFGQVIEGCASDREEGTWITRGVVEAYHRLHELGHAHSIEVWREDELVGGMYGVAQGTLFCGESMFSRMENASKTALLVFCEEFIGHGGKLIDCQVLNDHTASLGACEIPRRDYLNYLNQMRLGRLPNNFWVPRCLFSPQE
T2 sequence (P0A8P1 whole entry): as above

Row | Structure (SMILES) | Inhibition of addition from the Phe donor 4a ([1]; 5 mM added) | Ki ([1]; Phe donor 4a transfer reaction) | Inhibition of Nap transfer to LysAlaAcm from 4d [2] | Conversion of α-casein, trypsin digest and MALDI MS [3] | Azf transfer to α-casein in crude E. coli lysate with unpurified AaT [4] | Ligated Product Yield (%) [5]
1 | Nc1ncnc2c1ncn2[C@@H]1O[C@H](CO)[C@@H](O)[C@H]1O [adenosine] | not inhibited | > 5 mM | did not significantly inhibit; also recorded: No significant inhibition | – | – | –
2 | [N-]=[N+]=Nc1ccc(C[C@H](N)C(=O)O[C@@H]2[C@H](O)[C@@H](CO)O[C@H]2n2cnc3c(N)ncnc32)cc1 [4c, (S)-(2R,3R,4R,5R)-2-(6-amino-9H-purin-9-yl)-4-hydroxy-5-(hydroxymethyl)tetrahydrofuran-3-yl 2-amino-3-(4-azidophenyl)propanoate] | – | – | – | Complete conversion | successful | 78.5 ± 5.2%
